Laboratory results from patent publication EP2891500B1, “Contrast agent for determination of aldehyde dehydrogenase (ALDH) activity” (Cambridge Enterprise Limited, priority 2014, dated 2015).
“And” between values parts separate entries of the source, which are not always exact repeats. Equal entries are not always repeated.

Key:
[1] = Measurement of blood ethanol level (13C MRS on plasma samples); type: in vivo, mice; details: for ethanol concentration in plasma: plasma withdrawn 75 seconds after start of i.v. injection of 10 µl per g body weight of 110 mM ethanol
Method: Measurement of blood ethanol level: An appropriate volume of [2-^13C] ethanol, polarized and dissolved to the same concentration as [1-^13C] ethanol, was injected into the tail vein of animals that had been anesthetized for 30-45 minutes. Blood was withdrawn by cardiac puncture, which began 75 seconds after the start of ethanol injection and was completed within 30 seconds. Individual blood samples were transferred into separate BD Microtainer FE micro-collection tubes (BD, Franklin Lakes, NJ, US), centrifuged at 800 g and the plasma removed and frozen in liquid nitrogen. For NMR spectroscopy, plasma samples were thawed and diluted in 200 mM PBS in D2O, pH 7.5. The buffer contained 100 mM TMSP (2,2,3,3-D4 sodium-3-trimethylsilylpropionate) as an intensity and chemical shift standard (Cambridge Isotope Laboratories, Inc. Andover MA, US). ^13C spectra (the sum of 1024 transients) were acquired under fully relaxed conditions at 125 MHz (Bruker Avance II^+ 500 MHz spectrometer) into 25,294 data points using a 90° pulse, a sweep width of 5 kHz, and a TR of 35 seconds. Integrated intensities of the 2-^13C ethanol and 2-^13C acetate resonances were normalized to that of TMSP and multiplied by the methyl ^13C concentration in 100 mM TMSP (3.33 mM) in order to convert to acetate or ethanol concentrations.

[2] = molecular target: T1, ALDH2 (Mus musculus, UniProt P47738); test: ALDH2 activity assay in liver extracts of treated animals; type: biochemical, mice; details: 24 hours after 600 mg/kg body weight disulfiram, versus control animals
T1 construct: animals were killed and their livers rapidly excised, freeze-clamped and stored at - 80°C before homogenization and enzyme assay; from tissue; host or cells: Triton X-100 extract of freeze-clamped mouse liver
T1 sequence (P47738 20-519): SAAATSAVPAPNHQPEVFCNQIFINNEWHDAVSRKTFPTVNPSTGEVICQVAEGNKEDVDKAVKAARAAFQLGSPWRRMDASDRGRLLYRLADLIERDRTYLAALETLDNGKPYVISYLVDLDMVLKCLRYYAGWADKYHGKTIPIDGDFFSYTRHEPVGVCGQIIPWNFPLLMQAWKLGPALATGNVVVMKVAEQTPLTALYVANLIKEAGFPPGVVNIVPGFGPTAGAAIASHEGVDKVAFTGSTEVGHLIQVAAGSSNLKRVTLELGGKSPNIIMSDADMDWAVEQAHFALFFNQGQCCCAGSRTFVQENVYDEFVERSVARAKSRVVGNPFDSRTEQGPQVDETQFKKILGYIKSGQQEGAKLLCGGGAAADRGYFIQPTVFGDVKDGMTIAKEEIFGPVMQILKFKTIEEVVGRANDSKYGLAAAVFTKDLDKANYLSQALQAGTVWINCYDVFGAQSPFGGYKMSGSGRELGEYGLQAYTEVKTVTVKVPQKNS
Method: Animals were given 100 mg/kg or 600 mg/kg body weight of disulfiram as a suspension in 5% w/v of gum arabicum, by oral gavage (Spielman, D.M., Mayer, D., Yen, Y.F., Tropp, J., Hurd, R.E., Pfefferbaum, A., "In vivo measurement of ethanol metabolism in the rat liver using magnetic resonance spectroscopy of hyperpolarised [1-13C]pyruvate.", Magn.Reson.Med. 2009; 62: 307-313). ^13C MRS experiments were performed approximately 24 hours after drug administration. In some experiments, shortly after completion of MRS measurements, animals were killed and their livers rapidly excised, freeze-clamped and stored at - 80°C before homogenization and enzyme assay.
Liver Tissue Extraction: Freeze-clamped livers were homogenized using a manual Potter S homogenizer (Sartorius, Epsom, UK) in 7 volumes (mL per gram wet weight of liver) of ice-cold extraction buffer (50 mM Tris-HCl, pH 7.4 containing 0.25 M sucrose, 0.1 % v/v 2-mercaptoethanol, 1 mM EDTA and protease inhibitor cocktail (Roche)). Ten strokes of 5 seconds (each followed by a 5 second pause) at 1000 r.p.m. were used. […]
ALDH2 activity assay: The assay mixture containing 0.5 mM NAD^+, 0.1 % v/v of 2-mercaptoethanol, 200 mM KCl in 100 mM sodium pyrophosphate buffer, pH 9.0. […] The formation of NADH was measured for 5 minutes after substrate addition as an increase in absorbance at 340 nm using a Tecan Sunrise 96 well plate reader. […]

[3] = molecular target: T1, ALDH2; test: In vivo 13C MRS of acetate production from hyperpolarised [1-13C, U-2H5]ethanol in liver after disulfiram treatment; parameters: species or system mice; details: approximately 24 hours before MRS
Excerpt: All animal experiments were approved by local ethical review committees and performed in accordance with the Animals (Scientific Procedures) Act of 1986. Female CD1 mice (6-8 weeks old) were used in all experiments. Animals were anaesthetized using 3 % isoflurane vapor (Isoflo, Abbotts Laboratories Ltd, Maidenhead, UK) in an oxygen/air mixture. Anesthesia was maintained during the MR experiments with 1-2 % isoflurane vapor in an oxygen/air mixture delivered via a face mask.
In vivo NMR spectroscopy: A catheter was inserted in a tail vein and the mouse placed in a heated cradle. Throughout the experiment animal breathing rate and core body temperature were monitored using a Biotrig physiological monitor (Small Animal Instruments, Stony Brook, NY), which were within the range of 60-100 bpm and 36-37°C, respectively. A 20 mm diameter surface coil (Rapid Biomedical GmbH, Rimpar, Germany) was placed over the liver and the entire assembly placed in a ^13C/^1H volume coil (Rapid Biomedicals, Germany), in a 7T horizontal bore magnet (Varian, Palo Alto, CA). Livers were localized in transverse ^1H images, acquired using a spin-echo pulse sequence (TR, 1.5 s; echo time (TE), 10 ms; field of view, 40 mm x 40 mm; data matrix, 128 x 128; slice thickness, 2 mm; 15 slices). […] All data were phase and baseline corrected and the signal integrals for ethanol and acetate measured. […]

[4] = 13C T1 measurements in vitro (inversion recovery, 11 T); type: physicochemical; details: PBS buffer, pH 7.5, containing 4% BSA, n=2
Method: ^13C T1 measurements in vitro: Measurements were made at 11 T (Bruker Avance II^+ 500 MHz spectrometer) using an inversion recovery sequence in samples containing approximately 10 mM [1-^13C] ethanol or 1 M ethanol, 10% D2O and 4% BSA (Sigma Aldrich), buffered with PBS to pH 7.5. A TR of 300 seconds and 16 delays between 1 and 200 seconds were used for measurements with [1-^13C, U-^2H5] ethanol and a TR of 50 seconds and 16 delays between 0.5 and 50 seconds were used for measurements of the natural abundance ^13C signal from 1M ethanol.

[5] = Hyperpolarisation by dynamic nuclear polarization and liquid state polarization measurement; type: physicochemical
Method: A 2:3 glycerol: [1-^13C] ethanol mixture, containing 15 mM trityl radical (OX063: tris (8-carboxy-2,2,6,6-tetra-(hydroxyethyl)-benzo-[1,2-4,50]-bis-(1,3)-dithiole-4-yl)-methyl, sodium salt; GE Healthcare, Little Chalfont, UK) and 1.5 mM gadoteric acid (DOTAREM; Guebert, Roissy, France), was polarized for approximately 120 minutes in a 3.35 T Hypersense polarizer (Oxford Instruments, Abingdon, Oxfordshire, UK) using irradiation at 94.124 GHz. The dissolution buffer (PBS, pH 7.5, 100 mg/L EDTA) was heated to 180°C and pressurized to 10 bar before dissolving the frozen polarized samples. The dissolved sample contained 110 mM [1-^13C] ethanol. For measurements of the liquid state polarization a sample of [1-^13C] ethanol was polarized and dissolved as described above. Two mL of the sample, containing approximately 60 mM [1-^13C] ethanol were injected into 2 mL of PBS buffer, pH 7.4 in a 10 mm NMR tube placed inside a vertical bore 9.4 T NMR spectrometer with a broadband probe tuned to ^13C (Varian NMR Instruments, Palo Alto, CA, U.S.). Immediately following injection and approximately 9 seconds after dissolution, 180 single transient spectra, with a nominal pulse flip angle of 6° and 8 kHz spectral width, were acquired with a TR of 1 second. Three 90° pulses were then applied to eliminate the remaining hyperpolarisation. A ^13C spectrum (the sum of 128 transients) was then acquired using a 6° pulse, a spectral width of 8 kHz, and a TR of 300 seconds. The temperature of the sample was kept at 37°C. The liquid state polarization was calculated from the ratio of the maximal integrated intensity of the hyperpolarised [1-^13C] ethanol signal to the integrated intensity of the thermal equilibrium signal corrected for the number of transients.

SMILES: [13CH3]CO [[2-^13C] ethanol]
- [1-^13C] acetate concentration in plasma ([1]; plasma withdrawn 75 seconds after start of ethanol injection, SD, n=3): 0.93 ± 0.29 mM
- ethanol concentration in plasma ([1]; SD, n=3): 1.73 ± 0.48 mM

SMILES: CCN(CC)C(=S)SSC(=S)N(CC)CC [disulfiram]
- decrease of ALDH2 activity in liver extracts [2]: 68%
- decrease of the maximum acetate signal (normalized to the maximum ethanol signal) ([3]; disulfiram 100 mg/kg by oral gavage, n=1): approximately 43%
- decrease of the maximum acetate signal (normalized to the maximum ethanol signal) ([3]; disulfiram 600 mg/kg body weight by oral gavage, SD, n=3): 79 ± 8% and ~79%

SMILES: [2H]C([2H])([2H])[13C]([2H])([2H])O [[1-^13C, U-^2H5]ethanol]
- ^13C T1 [4]: 56 s
- polarization buildup time constant of dynamic nuclear polarization ([5]; 3.35 T Hypersense polarizer, n=3): 41.2 ± 5.5 min
- T1 calculated from the decay of the polarization ([5]; hyperpolarised sample in PBS, 9.4 T, 37°C, SD, n=3): 53.7 ± 3.2 s
- liquid state polarization ([5]; measured approximately 9 seconds after dissolution): 14.1 ± 3.3%

SMILES: CCO [ethanol]
- ^13C T1 [4]: 9.9 s
- expected ethanol concentration at equilibrium ([1]; calculated for 10 µl per g body weight of 110 mM ethanol, assuming water is approximately 74% of body weight): approximately 1.5 mM
- ethanol concentration in plasma ([1]; SD, n=3): 1.73 mM
